| Structure (SMILES) | melting point |
| --- | --- |
| O=C(NCc1ccc(Cl)cc1)c1cnc2ccsc2c1O [Example 1, N-(4-Chlorobenzyl)-7-hydroxythieno[3,2-b]pyridine-6-carboxamide] | 295 °C (dec.) |
| CCn1cc(C(=O)NCc2ccc(Cl)cc2)c(=O)c2sccc21 [Example 2, N-(4-Chlorobenzyl)-4-ethyl-7-oxo-4,7-dihydrothieno[3,2-b]pyridine-6-carboxamide] | 189 to 192 °C |

Source: patent publication US6861438B2, “Antiviral agents” (Pfizer, priority 2002, dated 2005)
